Assay [1] addresses T1, human calcitonin (a) receptor in BHK570 cells (Homo sapiens, UniProt P30988).
T1 construct: expressed in transfected cells
T1 sequence (P30988 25-474): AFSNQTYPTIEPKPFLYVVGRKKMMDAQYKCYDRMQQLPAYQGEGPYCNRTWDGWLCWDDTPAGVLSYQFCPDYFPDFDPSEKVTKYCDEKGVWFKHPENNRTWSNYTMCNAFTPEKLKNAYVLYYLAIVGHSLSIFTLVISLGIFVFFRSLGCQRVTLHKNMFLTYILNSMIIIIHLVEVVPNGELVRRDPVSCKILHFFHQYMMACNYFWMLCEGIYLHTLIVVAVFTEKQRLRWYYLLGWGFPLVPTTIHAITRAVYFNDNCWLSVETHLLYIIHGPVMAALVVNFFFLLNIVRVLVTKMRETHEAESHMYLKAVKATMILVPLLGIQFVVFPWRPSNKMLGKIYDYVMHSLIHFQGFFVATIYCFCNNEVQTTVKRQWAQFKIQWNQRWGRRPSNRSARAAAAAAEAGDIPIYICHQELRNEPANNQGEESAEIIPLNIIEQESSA
The assay can be described thus: ASSAY (II)a functional assay, human calcitonin receptor (CRE luciferase). Format: cell-based. Summed up: (§1)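 Read-out: CRE-driven luciferase luminescence, single photon counting, after 30 min at room temperature with LucLite. BHK cells expressed calcitonin receptor alone or with RAMP-3 (amylin 3(a)). Cells were stimulated 3 h at 37° C in DMEM, 10% FBS, 10 mM Hepes, pH 7.4.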

Assay [2] concerns the target T2, human amylin 3(a) receptor (human calcitonin receptor + RAMP-3) in BHK570 cells (Homo sapiens, UniProt O60896+P30988).
T2 construct: expressed in transfected cells
Nature of the assay: ASSAY (II)a functional assay, human amylin receptor (CRE luciferase). Format: cell-based. Summed up: as §1

For assay [3], the target named is T3, human calcitonin receptor (Homo sapiens, UniProt P30988).
T3 construct: expressed in transfected cells
T3 sequence (P30988 25-474): T1 sequence (P30988 25-474)
Nature of the assay: ASSAY (VII) binding to the human calcitonin receptor (SPA, 125I-Calcitonin).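 Note: cell membranes (35 ng/µL) combined with SPA beads in 40 µL of pH 7.4 Hepes buffer, 384-well format, signal counted on a TopCounter instrument.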

[4] abbreviates: hCTR funct. EC50 divided by hAmylin-R funct. EC50.
Where [5] appears, read: hCTR funct. EC50 over hAmylin-R funct. EC50.
Setting [6] is: human amylin receptor functional potency, assay (II), read-out: hAmylin-R funct. EC50.
The mark [7] stands for this setting: human functional selectivity: hCTR funct. EC50 / hAmylin-R funct. EC50.
The mark [8] stands for this setting: hCTR funct. EC50 / hAmylin-R funct. EC50.

This is an account of results in patent publication US9023789B2, “Amylin analogs and pharmaceutical compositions thereof” (Novo Nordisk A/S, priority 2012, dated 2015).

Like-named read-outs stand apart in the source and are kept apart here. Numbered stars: 1 amine (or outer) side, 2 acyl side, 3 side chain; on linkers, the order of the positions; unused ones are H or OH. Bridge positions count the residues as written; N and C are the ends. Side chains are listed from the residue outwards. Peptide text beside a SMILES is read from it. * marks the point of attachment. C20 diacid = O=C(O)CCCCCCCCCCCCCCCCCCC(=O)*; γGlu = O=C(O)[C@H](CCC(=O)[*:2])N[*:1]

T2 sequence (O60896 24-148, one chain of several): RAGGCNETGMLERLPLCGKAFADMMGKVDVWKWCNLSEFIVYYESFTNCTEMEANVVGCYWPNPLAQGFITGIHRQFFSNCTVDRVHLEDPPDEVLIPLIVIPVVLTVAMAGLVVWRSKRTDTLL

Turning to `CC[C@H](C)[C@H](NC(=O)[C@H](C)NC(=O)CNC(=O)[C@H](Cc1ccccc1)NC(=O)[C@H](CC(N)=O)NC(=O)[C@@H]1CCCN1C(=O)[C@H](CO)NC(=O)[C@H](CO)NC(=O)[C@H](Cc1c[nH]cn1)NC(=O)[C@H](CCCNC(=N)N)NC(=O)[C@H](CC(C)C)NC(=O)[C@H](Cc1ccccc1)NC(=O)[C@H](CCC(=O)O)NC(=O)[C@H](C)NC(=O)[C@H](CC(C)C)NC(=O)[C@H](CCCNC(=N)N)NC(=O)[C@H](CCC(N)=O)NC(=O)[C@@H](NC(=O)[C@H](C)NC(=O)[C@@H]1CSSC[C@H](NC(=O)[C@@H](N)CCCCNC(=O)CC[C@H](NC(=O)CC[C@H](NC(=O)CCCCCCCCCCCCCCCCCCC(=O)O)C(=O)O)C(=O)O)C(=O)N[C@@H](CC(N)=O)C(=O)N[C@@H]([C@@H](C)O)C(=O)N[C@@H](C)C(=O)N[C@@H]([C@@H](C)O)C(=O)N1)[C@@H](C)O)C(=O)N1CCC[C@H]1C(=O)N[C@@H](CO)C(=O)N[C@@H](CO)C(=O)N[C@H](C(=O)N[C@@H](CC(N)=O)C(=O)N[C@H](C(=O)NCC(=O)N[C@@H](Cc1c[nH]cn1)C(=O)N[C@@H](CC(N)=O)C(=O)N[C@H](C(=O)N[C@@H](Cc1ccc(O)cc1)C(N)=O)[C@@H](C)O)C(C)C)[C@@H](C)O` [Example 87] (H-K([γGlu-γGlu-C20 diacid])CNTATCATQRLAEFLRHSSPNFGAIPSSTNVGHNTY-NH2; disulfide 2-7), the values for the EC50 in assay [1] (read-out: hCTR funct. EC50) and in assay [2] (setting [6]) were 1.09 nM and 0.285 nM, respectively. Moreover, the “Ratio hCT/hAmylin funct.” value in assay [2] (setting [4]), in assay [2] (setting [5]) and in assay [2] (setting [7]) was 3.8 each time. Moreover, the IC50 in assay [3] (read-out: hCTR bind IC50) was found to be 22.5 nM.

Regarding `CC[C@H](C)[C@H](NC(=O)[C@H](C)NC(=O)CNC(=O)[C@H](Cc1ccccc1)NC(=O)[C@H](CC(N)=O)NC(=O)[C@@H]1CCCN1C(=O)[C@H](CO)NC(=O)[C@H](CO)NC(=O)[C@H](Cc1c[nH]cn1)NC(=O)[C@H](CCCNC(=N)N)NC(=O)[C@H](CC(C)C)NC(=O)[C@H](Cc1ccccc1)NC(=O)[C@H](CCC(=O)O)NC(=O)[C@H](C)NC(=O)[C@H](CC(C)C)NC(=O)[C@H](CCCNC(=N)N)NC(=O)[C@H](CCC(N)=O)NC(=O)[C@@H](NC(=O)[C@H](C)NC(=O)[C@@H]1CSSC[C@H](NC(=O)[C@H](CCCCN)NC(=O)CC[C@H](NC(=O)CCCCCCCCCCCCCCCCCCC(=O)O)C(=O)O)C(=O)N[C@@H](CC(N)=O)C(=O)N[C@@H]([C@@H](C)O)C(=O)N[C@@H](C)C(=O)N[C@@H]([C@@H](C)O)C(=O)N1)[C@@H](C)O)C(=O)N1CCC[C@H]1C(=O)N[C@@H](CO)C(=O)N[C@@H](CO)C(=O)N[C@H](C(=O)N[C@@H](CC(N)=O)C(=O)N[C@H](C(=O)NCC(=O)N[C@@H](CO)C(=O)N[C@@H](CC(N)=O)C(=O)N[C@H](C(=O)N1CCC[C@H]1C(N)=O)[C@@H](C)O)C(C)C)[C@@H](C)O` [Example 8] ({C20 diacid-γGlu}-KCNTATCATQRLAEFLRHSSPNFGAIPSSTNVGSNTP-NH2; disulfide 2-7), the EC50 came out at 0.087 nM in assay [1] (read-out: hCTR funct. EC50) and 0.082 nM in assay [2] (setting [6]). In addition, the “Ratio hCT/hAmylin funct.” value in assay [2] (setting [8]), in assay [2] (setting [4]), in assay [2] (setting [5]) and in assay [2] (setting [7]) was 1.1 in each case. Besides, in assay [3] (read-out: hCTR bind IC50), the concentration for half-maximal inhibition (IC50) was 0.038 nM.

Regarding `CC[C@H](C)[C@H](NC(=O)[C@H](C)NC(=O)CNC(=O)[C@H](Cc1ccccc1)NC(=O)[C@H](CC(N)=O)NC(=O)[C@@H]1CCCN1C(=O)[C@H](CO)NC(=O)[C@H](CO)NC(=O)[C@H](Cc1c[nH]cn1)NC(=O)[C@H](CCCNC(=N)N)NC(=O)[C@H](CC(C)C)NC(=O)[C@H](Cc1ccccc1)NC(=O)[C@H](C)NC(=O)[C@H](C)NC(=O)[C@H](CC(C)C)NC(=O)[C@H](CCCNC(=N)N)NC(=O)[C@H](CCC(N)=O)NC(=O)[C@@H](NC(=O)[C@H](C)NC(=O)[C@@H]1CSSC[C@H](NC(=O)[C@@H](N)CCCCNC(=O)CC[C@H](NC(=O)CCCCCCCCCCCCCCCCCCC(=O)O)C(=O)O)C(=O)N[C@@H](CC(N)=O)C(=O)N[C@@H]([C@@H](C)O)C(=O)N[C@@H](C)C(=O)N[C@@H]([C@@H](C)O)C(=O)N1)[C@@H](C)O)C(=O)N1CCC[C@H]1C(=O)N[C@@H](CO)C(=O)N[C@@H](CO)C(=O)N[C@H](C(=O)N[C@@H](CC(N)=O)C(=O)N[C@H](C(=O)NCC(=O)N1CCC[C@H]1C(=O)N[C@@H](CC(N)=O)C(=O)N[C@H](C(=O)N[C@@H](Cc1ccc(O)cc1)C(N)=O)[C@@H](C)O)C(C)C)[C@@H](C)O` [Example 94] (H-K([γGlu-C20 diacid])CNTATCATQRLAAFLRHSSPNFGAIPSSTNVGPNTY-NH2; disulfide 2-7 (inferred)), the results for the EC50 in assay [1] (read-out: hCTR funct. EC50) and in assay [2] (setting [6]) were 0.316 nM and 0.07 nM, respectively. Besides, the “Ratio hCT/hAmylin funct.” value in assay [2] (setting [8]), in assay [2] (setting [4]) and in assay [2] (setting [7]) was 4.5 each time. For the same compound, the IC50 in assay [3] (read-out: hCTR bind IC50) worked out at 6.86 nM.

`CC[C@H](C)[C@H](NC(=O)[C@H](C)NC(=O)CNC(=O)[C@H](Cc1ccccc1)NC(=O)[C@H](CC(N)=O)NC(=O)[C@@H]1CCCN1C(=O)[C@H](CO)NC(=O)[C@H](CO)NC(=O)[C@H](Cc1c[nH]cn1)NC(=O)[C@H](CCCNC(=N)N)NC(=O)[C@H](CC(C)C)NC(=O)[C@H](Cc1ccccc1)NC(=O)[C@H](CC(=O)O)NC(=O)[C@H](C)NC(=O)[C@H](CC(C)C)NC(=O)[C@H](CCCNC(=N)N)NC(=O)[C@H](CCC(N)=O)NC(=O)[C@@H](NC(=O)[C@H](C)NC(=O)[C@@H]1CSSC[C@H](NC(=O)[C@H](CCCCN)NC(=O)CC[C@H](NC(=O)CCCCCCCCCCCCCCCCCCC(=O)O)C(=O)O)C(=O)N[C@@H](CC(N)=O)C(=O)N[C@@H]([C@@H](C)O)C(=O)N[C@@H](C)C(=O)N[C@@H]([C@@H](C)O)C(=O)N1)[C@@H](C)O)C(=O)N1CCC[C@H]1C(=O)N[C@@H](CO)C(=O)N[C@@H](CO)C(=O)N[C@H](C(=O)N[C@@H](CC(N)=O)C(=O)N[C@H](C(=O)NCC(=O)N[C@@H](CO)C(=O)N[C@@H](CC(N)=O)C(=O)N[C@H](C(=O)N1CCC[C@H]1C(N)=O)[C@@H](C)O)C(C)C)[C@@H](C)O` [Example 10] ({C20 diacid-γGlu}-KCNTATCATQRLADFLRHSSPNFGAIPSSTNVGSNTP-NH2; disulfide 2-7 (inferred)): the EC50 is 0.07 nM in assay [1] (read-out: hCTR funct. EC50) and 0.072 nM in assay [2] (setting [6]). Also, the “Ratio hCT/hAmylin funct.” value in assay [2] (setting [8]), in assay [2] (setting [4]), in assay [2] (setting [5]) and in assay [2] (setting [7]) was 1.0 throughout. The IC50 in assay [3] (read-out: hCTR bind IC50) amounted to 0.099 nM.

Consider `CC[C@H](C)[C@H](NC(=O)[C@H](C)NC(=O)CNC(=O)[C@H](Cc1ccccc1)NC(=O)[C@H](CC(N)=O)NC(=O)[C@@H]1CCCN1C(=O)[C@H](CO)NC(=O)[C@H](CO)NC(=O)[C@H](Cc1c[nH]cn1)NC(=O)[C@H](CCCNC(=N)N)NC(=O)[C@H](CC(C)C)NC(=O)[C@H](Cc1ccccc1)NC(=O)[C@H](C)NC(=O)[C@H](C)NC(=O)[C@H](CC(C)C)NC(=O)[C@H](CCCNC(=N)N)NC(=O)[C@H](CCC(N)=O)NC(=O)[C@@H](NC(=O)[C@H](C)NC(=O)[C@@H]1CSSC[C@H](NC(=O)[C@H](CCCNC(=N)N)NC(=O)CNC(=O)CC[C@H](NC(=O)CCCCCCCCCCCCCCCCCCC(=O)O)C(=O)O)C(=O)N[C@@H](CC(N)=O)C(=O)N[C@@H]([C@@H](C)O)C(=O)N[C@@H](C)C(=O)N[C@@H]([C@@H](C)O)C(=O)N1)[C@@H](C)O)C(=O)N1CCC[C@H]1C(=O)N[C@@H](CO)C(=O)N[C@@H](CO)C(=O)N[C@H](C(=O)N[C@@H](CC(N)=O)C(=O)N[C@H](C(=O)NCC(=O)N1CCC[C@H]1C(=O)N[C@@H](CC(N)=O)C(=O)N[C@H](C(=O)N[C@@H](Cc1ccc(O)cc1)C(N)=O)[C@@H](C)O)C(C)C)[C@@H](C)O` [Example 103] ({C20 diacid-γGlu}-GRCNTATCATQRLAAFLRHSSPNFGAIPSSTNVGPNTY-NH2; disulfide 3-8), for which the results for the half-maximal effective concentration (EC50) in assay [1] and in assay [2] were 0.148 nM and 0.07 nM, respectively. Besides, the “Ratio hCT/hAmylin funct.” value in assay [2] (setting [8]), in assay [2] (setting [4]), in assay [2] (setting [5]) and in assay [2] (setting [7]) was 2.1 throughout. In assay [3], the half-inhibitory concentration (IC50) was 3 nM.
